Data: patent publication EP0403242A1, “New L-683,590 microbial transformation product” (Merck & Co., Inc., priority 1989, dated 1990)
Several values for one entry are separate records, joined by “and”; a condition that tells them apart may be missing. Equal entries are not always repeated. Where two headings read alike, the source gives them in different places. Each block holds one compound with its values, some of them ahead of it.

Experiments:
mouse T lymphocytes = assay: T-cell proliferation assay (ionomycin plus PMA induced T-cell stimulation, tritiated thymidine uptake); type: cell-based, C57B1/6 mice
Procedure: The principle of this assay is to measure the proliferation of mouse T lymphocytes stimulated with the combination of ionomycin plus PMA. […] Cells were pelleted by centrifugation at 1500 rpm for 8 minutes. Contaminating red cells were removed by treating the pellet with ammonium chloride lysing buffer (GIBCO) for 2 minutes at 4°C. Cold medium was added and cells were again centrifuged at 1500 rpm for 8 minutes. T lymphocytes were then isolated by separation of the cell suspension on nylon wool columns as follows: Nylon wool columns were prepared by packing approximately 4 grams of washed and dried nylon wool into 20 ml plastic syringes. The columns were sterilized by autoclaving at 250°F for 30 minutes. Nylon wool columns were wetted with warm (37°C) culture medium and rinsed with the same medium. Washed spleen cells resuspended in warm medium were slowly applied to the nylon wool. The columns were then incubated in an upright position at 37°C for 1 hour. Non-adherent T lymphocytes were eluted from the columns with warm culture medium and the cell suspensions were spun as above. […] The cell suspension was immediately distributed into 96 well flat-bottom microculture plates (Costar) at 200 μl/well. […] The proliferation of T lymphocytes was assessed by measurement of tritiated thymidine incorporation. After 44 hours of culturing, the cells were pulse-labelled with 2 μCi/well of tritiated thymidine (NEN, Cambridge, MA). After another 4 hours of incubation, cultures were harvested on glass fiber filters using a multiple sample harvester. Radioactivity of filter discs corresponding to individual wells was measured by standard liquid scintillation counting methods (Betacounter). […]

[1] = Physical characteristics of the fermentation product; type: physicochemical; details: qualitative, solvent methanol
Text: White amorphous powder • 2. […] Molecular weight of 763, as determined by electron impact mass spectroscopy and is consistent with the assigned molecular structure in Figure 1.

SMILES: C=CC[C@@H]1/C=C(\C)C[C@H](C)C[C@H](OC)[C@H]2O[C@@](O)(C(=O)C(=O)N3CCCC[C@H]3C(=O)O[C@H](/C(C)=C/[C@@H]3CC[C@@H](O)[C@H](OC)C3)[C@H](C)[C@@H](O)CC1=O)[C@H](C)C[C@@H]2OC [L-679,934, reference compound]
inhibition at 0.001 µg/mL (mouse T lymphocytes; Mus musculus, T-lymphocyte, Table 1, L-679,934 1 ng/ml alone (0 ng/ml L-686,292)): 99% | inhibition at 0.001 µg/mL (mouse T lymphocytes; Mus musculus, T-lymphocyte, Table 2, L-679,934 (1 ng/ml) alone (0 ng/ml L-686,292)): 97.1% | IC50 (mouse T lymphocytes; Mus musculus, T-lymphocyte, read-out: IC₅₀ for L-679,934-mediated inhibition): 0.00032 µg/mL and 0.4 nM

Solubility [1]: Solubility in methanol
SMILES: CC[C@@H]1/C=C(\C)C[C@H](C)C[C@H](O)[C@H]2O[C@@](O)(C(=O)C(=O)N3CCCC[C@H]3C(=O)O[C@H](/C(C)=C/[C@@H]3CC[C@@H](O)[C@H](O)C3)[C@H](C)[C@@H](O)CC1=O)[C@H](C)C[C@@H]2OC [L-686,292]
inhibition at 0.031 µg/mL (mouse T lymphocytes; Mus musculus, T-lymphocyte, 48 h, Table 1, L-686,292 only, 31 ng/ml, harvest at 48 hours): 0% | inhibition at 0.063 µg/mL (mouse T lymphocytes; Mus musculus, T-lymphocyte, 48 h, Table 1, L-686,292 only, 63 ng/ml, harvest at 48 hours): 0% | inhibition at 0.125 µg/mL (mouse T lymphocytes; Mus musculus, T-lymphocyte, 48 h, Table 1, L-686,292 only, 125 ng/ml, harvest at 48 hours): 0% | inhibition at 0.25 µg/mL (mouse T lymphocytes; Mus musculus, T-lymphocyte, 48 h, Table 1, L-686,292 only, 250 ng/ml, harvest at 48 hours): 0% | inhibition at 0.5 µg/mL (mouse T lymphocytes; Mus musculus, T-lymphocyte, 48 h, Table 1, L-686,292 only, 500 ng/ml, harvest at 48 hours): 0% | inhibition at 1 µg/mL (mouse T lymphocytes; Mus musculus, T-lymphocyte, 48 h, Table 1, L-686,292 only, 1000 ng/ml, harvest at 48 hours): 0% | inhibition at 0.001 µg/mL (mouse T lymphocytes; Mus musculus, T-lymphocyte, Table 1, L-686,292 31 ng/ml & L-679,934 (1 ng/ml), read-out: % Inhibition): 99% | inhibition at 0.001 µg/mL (mouse T lymphocytes; Mus musculus, T-lymphocyte, Table 1, L-686,292 63 ng/ml & L-679,934 (1 ng/ml), read-out: % Inhibition): 99% | inhibition at 0.001 µg/mL (mouse T lymphocytes; Mus musculus, T-lymphocyte, Table 1, L-686,292 125 ng/ml & L-679,934 (1 ng/ml), read-out: % Inhibition): 96% | inhibition at 0.001 µg/mL (mouse T lymphocytes; Mus musculus, T-lymphocyte, Table 1, L-686,292 250 ng/ml & L-679,934 (1 ng/ml), read-out: % Inhibition): 65% | inhibition at 0.001 µg/mL (mouse T lymphocytes; Mus musculus, T-lymphocyte, Table 1, L-686,292 500 ng/ml & L-679,934 (1 ng/ml), read-out: % Inhibition): 3% | inhibition at 0.001 µg/mL (mouse T lymphocytes; Mus musculus, T-lymphocyte, Table 1, L-686,292 1000 ng/ml & L-679,934 (1 ng/ml), read-out: % Inhibition): 0% | inhibition at 0.001 µg/mL (mouse T lymphocytes; Mus musculus, T-lymphocyte, Table 2, L-686,292 31.3 ng/ml + inhibitor L-679,934 (1 ng/ml), read-out: % Inhibition): 93.4% | inhibition at 0.001 µg/mL (mouse T lymphocytes; Mus musculus, T-lymphocyte, Table 2, L-686,292 62.5 ng/ml + inhibitor L-679,934 (1 ng/ml), read-out: % Inhibition): 65.7% | inhibition at 0.001 µg/mL (mouse T lymphocytes; Mus musculus, T-lymphocyte, Table 2, L-686,292 125 ng/ml + inhibitor L-679,934 (1 ng/ml), read-out: % Inhibition): 0% | inhibition at 0.001 µg/mL (mouse T lymphocytes; Mus musculus, T-lymphocyte, Table 2, L-686,292 1000 ng/ml + inhibitor L-679,934 (1 ng/ml), read-out: % Inhibition): 4.7% | IC50 (mouse T lymphocytes; Mus musculus, T-lymphocyte, reversal of inhibition by L-679,934 (1 ng/ml), read-out: IC₅₀ of reversal): 0.25 µg/mL and 328 nM | IC50 (mouse T lymphocytes; Mus musculus, T-lymphocyte, reversal of inhibition by L-679,934, 'generally in the range', read-out: IC₅₀ of reversal, general range): 100 to 400 nM | L-679,934 antagonist activity (mouse T lymphocytes; qualitative statement): exhibits reversal of L-679,934 mediated inhibition of T-cell activation
